{
  "source": "patent US7589097B2",
  "about": "“Triazol[4,5-d] pyramidine derivatives and their use as purinergic receptor antagonists” (Vernalis Research Limited, priority 2001, dated 2009)",
  "note": "Counter-ions that a name gives are not always drawn.",
  "data": [
    {"values": [
      {"smiles": "Nc1nc(-c2ccco2)c2nnn(Cc3cc(F)ccc3N)c2n1", "note": "[Example 171, 3-(2-amino-5-fluorobenzyl)-7-(2-furyl)-3H-[1,2,3]triazolo[4,5-d]pyrimidine-5-amine]", "melting point": "219.3 °C"},
      {"smiles": "Cc1cc(Cn2nnc3c(-c4ccco4)nc(N)nc32)c2[nH]ccc2c1", "note": "[Example 243, 7-(2-furyl)-3-(5-methyl-7-indolylmethyl)-3H-[1,2,3]triazolo[4,5-d]pyrimidine-5-amine]", "melting point": "> 300 °C (dec.)"},
      {"smiles": "Cc1cnccc1Cn1nnc2c(-c3ccco3)nc(N)nc21", "note": "[Example 126, 7-(2-furyl)-3-(3-methyl-4-pyridylmethyl)-3H-[1,2,3]triazolo[4,5-d]pyrimidine-5-amine]", "melting point": "229.6 to 230.3 °C"},
      {"smiles": "Cc1ccc(N)c(Cn2nnc3c(-c4ccco4)nc(N)nc32)c1", "note": "[Example 104, 3-(2-amino-5-methylbenzyl)-7-(2-furyl)-3H-[1,2,3]triazolo[4,5-d]pyrimidine-5-amine]", "melting point": "249.9 to 250.5 °C"},
      {"smiles": "Cc1ccc(-c2nc(N)nc3c2nnn3Cc2ccccc2N)o1", "note": "(as salt: hydrochloride) [Example 74, 3-(2-aminobenzyl)-7-(5-methyl-2-furyl)-3H-[1,2,3]triazolo[4,5-d]pyrimidine-5-amine hydrochloride]", "melting point": "214.6 to 215.2 °C"},
      {"smiles": "Cc1cnc(Cn2nnc3c(-c4ccco4)nc(N)nc32)cn1", "note": "[Example 106, 7-(2-furyl)-3-(5-methyl-2-pyrazinylmethyl)-3H-[1,2,3]triazolo[4,5-d]pyrimidine-5-amine]", "melting point": "288.1 to 288.2 °C"},
      {"smiles": "CCOc1cccc(Cn2nnc3c(-c4ccco4)nc(N)nc32)n1", "note": "[Example 253, 3-(6-ethoxy-2-pyridylmethyl)-7-(2-furyl)-3H-[1,2,3]triazolo[4,5-d]pyrimidine-5-amine]", "melting point": "181.8 to 182.1 °C"},
      {"smiles": "Nc1nc(-c2ccccc2)c2nnn(Cc3cccc([N+](=O)[O-])c3)c2n1", "note": "[Example 130, 3-(3-nitrobenzyl)-7-phenyl-3H-[1,2,3]triazolo[4,5-d]pyrimidine-5-amine]", "melting point": "149 to 149.6 °C"},
      {"smiles": "CC(C)c1cccc(Cn2nnc3c(-c4ccco4)nc(N)nc32)n1", "note": "[Example 197, 7-(2-furyl)-3-(6-isopropyl-2-pyridylmethyl)-3H-[1,2,3]triazolo[4,5-d]pyrimidine-5-amine]", "melting point": "188.3 to 188.5 °C"},
      {"smiles": "COc1ccc([N+](=O)[O-])cc1Cn1nnc2c(-c3ccco3)nc(N)nc21", "note": "[Example 66, 7-(2-Furyl)-3-(2-methoxy-5-nitrobenzyl)-3H-[1,2,3]triazolo[4,5-d]pyrimidine-5-amine]", "melting point": "243.4 to 243.9 °C"},
      {"smiles": "Nc1nc(-c2ccco2)c2nnn(Cc3cc(F)cc(F)c3F)c2n1", "note": "[Example 168, 7-(2-furyl)-3-(2,3,5-trifluorobenzyl)-3H-[1,2,3]triazolo[4,5-d]pyrimidine-5-amine]", "melting point": "204 to 204.2 °C"},
      {"smiles": "Cc1cccc(Cn2nnc3c(-c4ccco4)nc(N)nc32)n1", "note": "[Example 37, 7-(2-furyl)-3-(6-methyl-2-pyridylmethyl)-3H-[1,2,3]triazolo[4,5-d]pyrimidine-5-amine]", "melting point": "200.8 to 218.9 °C"},
      {"smiles": "N#CCc1cccc(Cn2nnc3c(-c4ccco4)nc(N)nc32)n1", "note": "[Example 220, 3-(6-Cyanomethyl-2-pyridylmethyl)-7-(2-furyl)-3H-[1,2,3]triazolo[4,5-d]pyrimidine-5-amine]", "melting point": "223.3 to 223.4 °C"},
      {"smiles": "CC(C)(C)OC(=O)Oc1cc(F)c(Cn2nnc3c(-c4ccco4)nc(N)nc32)c(F)c1", "note": "[Example 148, tert-butyl (4-(5-amino-7-(2-furyl)-3H-[1,2,3]triazolo[4,5-d]pyrimidine-3-ylmethyl)-3,5-difluorophenyl)carbonate]", "melting point": "259.8 to 259.9 °C"},
      {"smiles": "C=CCOCc1cccc(Cn2nnc3c(-c4ccc(C)o4)nc(N)nc32)n1", "note": "[Example 186, 3-(6-allyloxymethyl-2-pyridylmethyl)-7-(5-methyl-2-furyl)-3H-[1,2,3]triazolo[4,5-d]pyrimidine-5-amine]", "melting point": "149 to 149.3 °C"},
      {"smiles": "Nc1cccc(Cn2nnc3c(-c4cncs4)nc(N)nc32)c1", "note": "[Example 50, 3-(3-aminobenzyl)-7-(5-thiazolyl)-3H-[1,2,3]triazolo[4,5-d]pyrimidine-5-amine]", "melting point": "228.2 to 228.3 °C"},
      {"smiles": "Cc1ccc(-c2nc(N)nc3c2nnn3Cc2ccc(N)cc2)o1", "note": "[Example 184, 3-(4-aminobenzyl)-7-(5-methyl-2-furyl)-3H-[1,2,3]triazolo[4,5-d]pyrimidine-5-amine]", "melting point": "219.7 to 220.4 °C"},
      {"smiles": "CNC(=O)c1cccc(Cn2nnc3c(-c4ccc(C)o4)nc(N)nc32)c1", "note": "[Example 67, 3-(5-amino-7-(5-methyl-2-furyl)-3H-[1,2,3]triazolo[4,5-d]pyrimidin-3-ylmethyl)-N-methylbenzamide]", "melting point": "252.9 to 253 °C"},
      {"smiles": "NCc1ccccc1Cn1nnc2c(-c3ccco3)nc(N)nc21", "note": "[Example 161, 3-(2-aminomethylbenzyl)-7-(2-furyl)-3H-[1,2,3]triazolo[4,5-d]pyrimidine-5-amine]", "melting point": "> 250 °C (dec.)"},
      {"smiles": "Cc1ccc(-c2nc(N)nc3c2nnn3Cc2cccc(CNC(=O)OC(C)(C)C)c2)o1", "note": "[Example 73, tert-butyl N-(3-(5-amino-7-(5-methyl-2-furyl)-3H-[1,2,3]triazolo[4,5-d]pyrimidine-3-ylmethyl)benzyl)carbamate]", "melting point": "178.7 to 179.3 °C"},
      {"smiles": "Nc1nc(-c2ccco2)c2nnn(Cc3ccc4cc[nH]c4c3)c2n1", "note": "[Example 152, 7-(2-Furyl)-3-(6-indolylmethyl)-3H-[1,2,3]triazolo[4,5-d]pyrimidine-5-amine]", "melting point": "298.9 to 299 °C"},
      {"smiles": "COc1cccc(Cn2nnc3c(-c4ccco4)nc(N)nc32)n1", "note": "[Example 32, 7-(2-furyl)-3-(6-methoxy-2-pyridylmethyl)-3H-[1,2,3]triazolo[4,5-d]pyrimidine-5-amine]", "melting point": "191.4 to 192 °C"},
      {"smiles": "Nc1nc(-c2ccco2)c2nnn(CCc3cccs3)c2n1", "note": "[Example 196, 7-(2-furyl)-3-(2-(2-thienylethyl))-3H-[1,2,3]triazolo[4,5-d]pyrimidine-5-amine]", "melting point": "178.4 to 179 °C"},
      {"smiles": "Nc1cccc(Cn2nnc3c(-c4ccccc4)nc(N)nc32)c1", "note": "[Example 151, 3-(3-aminobenzyl)-7-phenyl-3H-[1,2,3]triazolo[4,5-d]pyrimidine-5-amine]", "melting point": "251.2 to 251.5 °C"},
      {"smiles": "Cc1ccc(-c2nc(N)nc3c2nnn3Cc2ccc(N)c(F)c2)o1", "note": "[Example 174, 3-(4-amino-3-fluorobenzyl)-7-(5-methyl-2-furyl)-3H-[1,2,3]triazolo[4,5-d]pyrimidine-5-amine]", "melting point": "> 200 °C (dec.)"},
      {"smiles": "Cc1cc(Cn2nnc3c(-c4ccco4)nc(N)nc32)cc(C)c1N", "note": "[Example 262, 3-(4-amino-3,5-dimethylbenzyl)-7-(2-furyl)-3H-[1,2,3]triazolo[4,5-d]pyrimidine-5-amine]", "melting point": "250.1 to 261.3 °C"},
      {"smiles": "CC(C)COCc1cccc(Cn2nnc3c(-c4ccco4)nc(N)nc32)n1", "note": "[Example 217, 7-(2-furyl)-3-(6-isobutyloxymethyl-2-pyridylmethyl)-3H-[1,2,3]triazolo[4,5-d]pyrimidine-5-amine]", "melting point": "146.7 to 149.3 °C"},
      {"smiles": "Nc1nc(-c2cncs2)c2nnn(Cc3cccc([N+](=O)[O-])c3)c2n1", "note": "[Example 45, 3-(3-nitrobenzyl)-7-(5-thiazolyl)-3H-[1,2,3]triazolo[4,5-d]pyrimidine-5-amine]", "melting point": "190.4 to 190.8 °C"},
      {"smiles": "Nc1nc(-c2ccco2)c2nnn(Cc3ccc4nn[nH]c4c3)c2n1", "note": "[Example 158, 3-(1H-Benzotriazol-5-ylmethyl)-7-(2-furyl)-3H-[1,2,3]triazolo[4,5-d]pyrimidine-5-amine]", "melting point": "> 300 °C (dec.)"},
      {"smiles": "CCCc1cccc(Cn2nnc3c(-c4ccco4)nc(N)nc32)n1", "note": "[Example 216, 7-(2-furyl)-3-(6-n-propyl-2-pyridylmethyl)-3H-[1,2,3]triazolo[4,5-d]pyrimidine-5-amine]", "melting point": "178.3 to 178.5 °C"},
      {"smiles": "CC(c1ccc(C(F)(F)F)cc1)n1nnc2c(-c3ccco3)nc(N)nc21", "note": "(stereo not drawn) [Example 256, 7-(2-furyl)-3-(1-(4-frifluoromethylphenyl)ethyl)-3H-[1,2,3]triazolo[4,5-d]pyrimidine-5-amine]", "melting point": "167.6 to 168.1 °C"},
      {"smiles": "CC(C)(C)OC(=O)n1ccc2cc(Cn3nnc4c(-c5ccco5)nc(N)nc43)ccc21", "note": "[Example 142, tert-butyl 5-(5-amino-7-(2-furyl)-3H-[1,2,3]triazolo[4,5-d]pyrimidine-3-ylmethyl)indole-1-carboxylate]", "melting point": "189 to 189.1 °C"},
      {"smiles": "NCc1cccc(Cn2nnc3c(-c4ccn[nH]4)nc(N)nc32)c1", "note": "[Example 101, 3-(3-Aminomethylbenzyl)-7-(1H-pyrazol-3-yl)-3H-[1,2,3]triazolo[4,5-d]pyrimidine-5-amine]", "melting point": "279.9 to 280.3 °C"},
      {"smiles": "Nc1ccc(Cn2nnc3c(-c4ccco4)nc(N)nc32)cc1", "note": "[Example 141, 3-(4-aminobenzyl)-7-(2-furyl)-3H-[1,2,3]triazolo[4,5-d]pyrimidine-5-amine]", "melting point": "240.3 to 240.4 °C"},
      {"smiles": "N#Cc1ccnc(Cn2nnc3c(-c4ccco4)nc(N)nc32)c1", "note": "[Example 105, 3-(4-cyano-2-pyridylmethyl)-7-(2-furyl)-3H-[1,2,3]triazolo[4,5-d]pyrimidine-5-amine]", "melting point": "263.2 to 263.5 °C"},
      {"smiles": "CC(C)c1ccc(Cn2nnc3c(-c4ccco4)nc(N)nc32)cn1", "note": "[Example 228, 7-(2-furyl)-3-(6-isopropyl-3-pyridylmethyl)-3H-[1,2,3]triazolo[4,5-d]pyrimidine-5-amine]", "melting point": "164.3 to 169.3 °C"},
      {"smiles": "Cc1ccc(-c2nc(N)nc3c2nnn3Cc2cccc([N+](=O)[O-])c2C)o1", "note": "[Example 267, 7-(5-methyl-2-furyl)-3-(2-methyl-3-nitrobenzyl)-3H-[1,2,3]triazolo[4,5-d]pyrimidine-5-amine]", "melting point": "255.6 to 255.7 °C"},
      {"smiles": "CC(C)OCc1cccc(Cn2nnc3c(-c4ccco4)nc(N)nc32)n1", "note": "[Example 247, 7-(2-furyl)-3-(6-isopropoxymethyl-2-pyridylmethyl)-3H-[1,2,3]triazolo[4,5-d]pyrimidine-5-amine]", "melting point": "134.5 to 134.6 °C"},
      {"smiles": "CCOc1cccc(Cn2nnc3c(-c4ccc(C)o4)nc(N)nc32)n1", "note": "[Example 254, 3-(6-ethoxy-2-pyridylmethyl)-7-(5-methyl-2-furyl)-3H-[1,2,3]triazolo[4,5-d]pyrimidine-5-amine]", "melting point": "190.8 to 190.9 °C"}
    ]}
  ]
}
